# Earlier results in patent US20130210624A1, “COMPOSITION FOR IMPROVING PLANT HEALTH AND METHOD OF APPLYING SAME” (priority 2012, published 2013).
# System: oranges
# Settings: single prebloom foliar application; Albrigo 1999
substance,measurement,value
phosphite,flower number,increased flower number
same,yield,increased yield
